Reference: patent US12435072B2, “Compounds” (Vicore Pharma AB, priority 2019, dated 2025)

Tests used:
Type in all cases: in vitro ADME
CYP2B6 = target: T1, CYP2B6 (Homo sapiens, UniProt P20813); experiment: CYP inhibition in human liver microsomes, CYP2B6; conditions: probe bupropion, substrate bupropion, read-out: CYP2B6 Inh %
T1 construct: incubated with human liver microsomes; tissue Eurofins ITEMG232; host or cells: human liver microsomes
T1 sequence (P20813 1-491): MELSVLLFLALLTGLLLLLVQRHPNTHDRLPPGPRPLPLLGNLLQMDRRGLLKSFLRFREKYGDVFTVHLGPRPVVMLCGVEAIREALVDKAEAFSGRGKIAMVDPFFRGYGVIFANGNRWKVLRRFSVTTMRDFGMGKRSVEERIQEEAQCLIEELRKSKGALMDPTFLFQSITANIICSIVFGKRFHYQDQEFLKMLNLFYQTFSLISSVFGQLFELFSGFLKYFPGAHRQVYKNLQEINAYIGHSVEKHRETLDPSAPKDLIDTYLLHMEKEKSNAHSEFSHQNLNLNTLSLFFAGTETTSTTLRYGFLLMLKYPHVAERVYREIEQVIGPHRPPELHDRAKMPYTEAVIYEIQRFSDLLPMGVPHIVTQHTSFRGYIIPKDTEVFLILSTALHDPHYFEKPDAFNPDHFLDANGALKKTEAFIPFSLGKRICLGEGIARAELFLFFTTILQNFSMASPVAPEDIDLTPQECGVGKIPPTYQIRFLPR
Method: (§1) The following substrates were used: CYP1A phenacetin, CYP2B6 bupropion, CYP2C8 paclitaxel and amodiaquine, CYP2C9 diclofenac, CYP2C19 omeprazole, CYP2D6 dextromethorphan, CYP3A midazolam and testosterone. At the end of the incubation, the formation of metabolite was monitored by HPLC-MS/MS as the peak area response.

CYP2C8 = target: T2, CYP2C8 (Homo sapiens, UniProt P10632); experiment: CYP inhibition in human liver microsomes, CYP2C8; conditions: probe paclitaxel and amodiaquine, substrate paclitaxel and amodiaquine, read-out: CYP2C8 Inh %
T2 construct: incubated with human liver microsomes; tissue Eurofins ITEMG232; host or cells: human liver microsomes
T2 sequence (P10632 1-490): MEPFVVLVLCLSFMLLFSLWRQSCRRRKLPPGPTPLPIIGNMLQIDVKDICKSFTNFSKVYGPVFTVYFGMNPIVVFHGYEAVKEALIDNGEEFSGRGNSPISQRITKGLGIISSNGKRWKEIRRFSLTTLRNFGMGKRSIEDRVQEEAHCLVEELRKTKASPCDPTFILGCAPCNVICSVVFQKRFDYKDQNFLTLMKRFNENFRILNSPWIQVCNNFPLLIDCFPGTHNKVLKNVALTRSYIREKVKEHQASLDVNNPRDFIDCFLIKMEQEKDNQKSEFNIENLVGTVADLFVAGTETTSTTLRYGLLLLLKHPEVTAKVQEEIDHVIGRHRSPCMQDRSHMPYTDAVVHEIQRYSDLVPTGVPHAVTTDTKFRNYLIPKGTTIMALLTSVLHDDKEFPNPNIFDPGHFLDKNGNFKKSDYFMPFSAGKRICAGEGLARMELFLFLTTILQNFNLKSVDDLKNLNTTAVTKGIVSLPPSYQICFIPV
Method: as §1

CYP3A4 = CYP3A4 (Homo sapiens, UniProt P08684); experiment: CYP inhibition in human liver microsomes, CYP3A4 (midazolam); set-up: incubated with human liver microsomes; tissue Eurofins ITEMG232; host or cells: human liver microsomes; conditions: probe midazolam, substrate midazolam, read-out: CYP3A4 midazolam Inh %
Method: as §1

CYP3A4, sequence (P08684 whole entry): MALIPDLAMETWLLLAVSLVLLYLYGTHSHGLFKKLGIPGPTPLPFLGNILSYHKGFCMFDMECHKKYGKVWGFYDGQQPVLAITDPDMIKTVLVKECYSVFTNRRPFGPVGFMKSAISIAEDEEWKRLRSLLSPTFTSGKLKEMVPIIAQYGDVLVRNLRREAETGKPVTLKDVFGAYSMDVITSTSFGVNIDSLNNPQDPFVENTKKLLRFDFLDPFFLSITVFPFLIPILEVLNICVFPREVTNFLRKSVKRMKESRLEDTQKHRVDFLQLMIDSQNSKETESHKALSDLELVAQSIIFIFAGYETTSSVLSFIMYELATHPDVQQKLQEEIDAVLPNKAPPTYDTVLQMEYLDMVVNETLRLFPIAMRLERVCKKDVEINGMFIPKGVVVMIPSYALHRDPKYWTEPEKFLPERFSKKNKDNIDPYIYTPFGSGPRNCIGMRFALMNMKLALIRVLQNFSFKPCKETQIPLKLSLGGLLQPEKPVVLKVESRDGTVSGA

Row | inhibition at 10 µM (CYP2B6) [%] | inhibition at 10 µM (CYP2C8) [%] | inhibition at 10 µM (CYP3A4) [%] | SMILES
1 | 30 | 76 | -5 | CC(C)Cc1cc(-c2ccc(Cn3ccnc3C(C)C)c(F)c2)c(S(=O)(=O)NC(=O)NCCC(F)(F)F)s1.O=C(O)C(F)(F)F [Example 41, 1-{[3-(3-fluoro-4-{[2-(propan-2-yl)-1H-imidazol-1-yl]methyl}phenyl)-5-(2-methylpropyl)thiophen-2-yl]sulfonyl}-3-(3,3,3-trifluoropropyl)urea trifluoroacetic acid]
2 | 46 | 56 | 26 | Cc1nccn1Cc1ccc(-c2cc(CC(C)C)sc2S(=O)(=O)NC(=O)NCc2cccs2)cc1F.O=C(O)C(F)(F)F [Example 35, 1-[(3-{3-fluoro-4-[(2-methyl-1H-imidazol-1-yl)methyl]phenyl}-5-(2-methylpropyl)thiophen-2-yl)sulfonyl]-3-[(thiophen-2-yl)methyl]urea trifluoroacetic acid]
3 | 3 | 77 | 80 | Cc1nccn1Cc1ccc(-c2cc(CC(C)C)sc2S(=O)(=O)NC(=O)NCc2ccccn2)cc1F [Example 13, 3-(3-{3-Fluoro-4-[(2-methyl-1H-imidazol-1-yl)methyl]phenyl}-5-isobutyl-2-thienylsulfonyl)-1-[(2-pyridyl)methyl]urea]
4 | 57 | 64 | 74 | Cc1nccn1Cc1ccc(-c2cc(CC(C)C)sc2S(=O)(=O)NC(=O)NCc2ccc(F)c(F)c2)cc1F.O=C(O)C(F)(F)F [Example 34, 1-[(3,4-difluorophenyl)methyl]-3-[(3-{3-fluoro-4-[(2-methyl-1H-imidazol-1-yl)methyl]phenyl}-5-(2-methylpropyl)thiophen-2-yl)sulfonyl]urea trifluoroacetic acid]
5 | 8.2 | 52.8 | 22.1 | Cc1nccn1Cc1ccc(-c2cc(CC(C)C)sc2S(=O)(=O)NC(=O)NCc2ccccn2)cc1 [Example 2, 3-(5-isobutyl-3-{p-[(2-Methyl-1H-imidazol-1-yl)methyl]phenyl}-2-thienylsulfonyl)-1-[(2-pyridyl)methyl]urea]
6 | 19 | 40 | 41.3 | Cc1nccn1Cc1ccc(-c2cc(CC(C)C)sc2S(=O)(=O)NC(=O)NCc2ccccc2)cc1 [Example 1, 1-benzyl-3-[[5-isobutyl-3-[4-[(2-methylimidazol-1-yl)methyl]phenyl]-2-thienyl]sulfonyl]urea]
7 | 54 | 64 | 85 | Cc1nccn1Cc1ccc(-c2cc(CC(C)C)sc2S(=O)(=O)NC(=O)NCC2CCC(F)(F)CC2)cc1F.O=C(O)C(F)(F)F [Example 40, 1-[(4,4-difluorocyclohexyl)methyl]-3-[(3-{3-fluoro-4-[(2-methyl-1H-imidazol-1-yl)methyl]phenyl}-5-(2-methylpropyl)thiophen-2-yl)sulfonyl]urea trifluoroacetic acid]
8 | 9.6 | 49.3 | 26.7 | Cc1nccn1Cc1ccc(-c2cc(CC(C)C)sc2S(=O)(=O)NC(=O)NCCCC(F)(F)F)cc1 [Example 5, 3-(5-isobutyl-3-{p-[(2-Methyl-1H-imidazol-1-yl)methyl]phenyl}-2-thienylsulfonyl)-1-(4,4,4-trifluorobutyl)-urea]
9 | 63 | 48 | 38 | Cc1nccn1Cc1ccc(-c2cc(CC(C)C)sc2S(=O)(=O)NC(=O)NCc2nccn2C)cc1F [Example 15, 1-(3-{3-Fluoro-4-[(2-methyl-1H-imidazol-1-yl)methyl]phenyl}-5-isobutyl-2-thienylsulfonyl)-3-[(1-methyl-1H-imidazol-2-yl)methyl]urea]
10 | 12.7 | 47.2 | 17.1 | CCCCNC(=O)NS(=O)(=O)c1sc(CC(C)C)cc1-c1ccc(Cn2ccnc2C)cc1 [Example 4, 1-Butyl-3-(5-isobutyl-3-{p-[(2-methyl-1H-imidazol-1-yl)methyl]phenyl}-2-thienylsulfonyl)-urea]
11 | 25 | 62 | 22 | Cc1nccn1Cc1ccc(-c2cc(CC(C)C)sc2S(=O)(=O)NC(=O)NCc2cc(Cl)ccn2)cc1F.O=C(O)C(F)(F)F [Example 38, 1-[(4-chloropyridin-2-yl)methyl]-3-[(3-{3-fluoro-4-[(2-methyl-1H-imidazol-1-yl)methyl]phenyl}-5-(2-methylpropyl)thiophen-2-yl)sulfonyl]urea trifluoroacetic acid]
12 | 25 | 65 | 35 | CCc1nccn1Cc1ccc(-c2cc(CC(C)C)sc2S(=O)(=O)NC(=O)NCc2ccc(F)cc2)cc1F.O=C(O)C(F)(F)F [Example 32, 3-[(3-{4-[(2-ethyl-1H-imidazol-1-yl)methyl]-3-fluorophenyl}-5-(2-methylpropyl)thiophen-2-yl)sulfonyl]-1-[(4-fluorophenyl)methyl] urea trifluoroacetic acid]
13 | 23 | 56 | 16 | Cc1nccn1Cc1ccc(-c2cc(CC(C)C)sc2S(=O)(=O)NC(=O)NC(C)c2ccccn2)cc1F (stereo not drawn) [Example 25, 3-(3-{3-Fluoro-4-[(2-methyl-1H-imidazol-1-yl)methyl]phenyl}-5-isobutyl-2-thienylsulfonyl)-1-[1-(2-pyridyl)ethyl]urea]
14 | 37 | 69 | -37 | CCCNC(=O)NS(=O)(=O)c1sc(CC(C)C)cc1-c1ccc(Cn2ccnc2CC)c(F)c1.O=C(O)C(F)(F)F [Example 33, 1-[(3-{4-[(2-ethyl-1H-imidazol-1-yl)methyl]-3-fluorophenyl}-5-(2-methylpropyl)thiophen-2-yl)sulfonyl]-3-propylurea trifluoroacetic acid]
15 | 43 | 78 | 30 | Cc1nccn1Cc1ccc(-c2cc(CC(C)C)sc2S(=O)(=O)NC(=O)NCCC(F)(F)F)cc1F [Example 14, 3-(3-{3-Fluoro-4-[(2-methyl-1H-imidazol-1-yl)methyl]phenyl}-5-isobutyl-2-thienylsulfonyl)-1-(3,3,3-trifluoropropyl)urea]
16 | 28 | 51 | 18 | Cc1nccn1Cc1ccc(-c2cc(CC(C)C)sc2S(=O)(=O)NC(=O)NCC(C)C)cc1F.O=C(O)C(F)(F)F [Example 39, 1-[(3-{3-fluoro-4-[(2-methyl-1H-imidazol-1-yl)methyl]phenyl}-5-(2-methylpropyl)thiophen-2-yl)sulfonyl]-3-(2-methylpropyl)urea trifluoroacetic acid]
17 | -0.4 | 38.6 | 10.1 | CCc1nccn1Cc1ccc(-c2cc(CC(C)C)sc2S(=O)(=O)NC(=O)NCCOC)cc1 [Example 7, 3-(3-{p-[(2-Ethyl-1H-imidazol-1-yl)methyl]phenyl}-5-isobutyl-2-thienylsulfonyl)-1-(2-methoxy-ethyl)urea]
18 | 18.1 | 76.2 | 28.5 | CCc1nccn1Cc1ccc(-c2cc(CC(C)C)sc2S(=O)(=O)NC(=O)NCc2ccccc2)cc1 [Example 6, 1-Benzyl-3-(3-{p-[(2-ethyl-1H-imidazol-1-yl)methyl]phenyl}-5-isobutyl-2-thienylsulfonyl)-urea]
